Biological target: H1047R PIK3CA enzyme (Homo sapiens, UniProt P42336, H1047R)
Test: ADP-Glo Biochemical PIK3CA Kinase Assay

H1047R PIK3CA enzyme, sequence (P42336 whole entry H1047R): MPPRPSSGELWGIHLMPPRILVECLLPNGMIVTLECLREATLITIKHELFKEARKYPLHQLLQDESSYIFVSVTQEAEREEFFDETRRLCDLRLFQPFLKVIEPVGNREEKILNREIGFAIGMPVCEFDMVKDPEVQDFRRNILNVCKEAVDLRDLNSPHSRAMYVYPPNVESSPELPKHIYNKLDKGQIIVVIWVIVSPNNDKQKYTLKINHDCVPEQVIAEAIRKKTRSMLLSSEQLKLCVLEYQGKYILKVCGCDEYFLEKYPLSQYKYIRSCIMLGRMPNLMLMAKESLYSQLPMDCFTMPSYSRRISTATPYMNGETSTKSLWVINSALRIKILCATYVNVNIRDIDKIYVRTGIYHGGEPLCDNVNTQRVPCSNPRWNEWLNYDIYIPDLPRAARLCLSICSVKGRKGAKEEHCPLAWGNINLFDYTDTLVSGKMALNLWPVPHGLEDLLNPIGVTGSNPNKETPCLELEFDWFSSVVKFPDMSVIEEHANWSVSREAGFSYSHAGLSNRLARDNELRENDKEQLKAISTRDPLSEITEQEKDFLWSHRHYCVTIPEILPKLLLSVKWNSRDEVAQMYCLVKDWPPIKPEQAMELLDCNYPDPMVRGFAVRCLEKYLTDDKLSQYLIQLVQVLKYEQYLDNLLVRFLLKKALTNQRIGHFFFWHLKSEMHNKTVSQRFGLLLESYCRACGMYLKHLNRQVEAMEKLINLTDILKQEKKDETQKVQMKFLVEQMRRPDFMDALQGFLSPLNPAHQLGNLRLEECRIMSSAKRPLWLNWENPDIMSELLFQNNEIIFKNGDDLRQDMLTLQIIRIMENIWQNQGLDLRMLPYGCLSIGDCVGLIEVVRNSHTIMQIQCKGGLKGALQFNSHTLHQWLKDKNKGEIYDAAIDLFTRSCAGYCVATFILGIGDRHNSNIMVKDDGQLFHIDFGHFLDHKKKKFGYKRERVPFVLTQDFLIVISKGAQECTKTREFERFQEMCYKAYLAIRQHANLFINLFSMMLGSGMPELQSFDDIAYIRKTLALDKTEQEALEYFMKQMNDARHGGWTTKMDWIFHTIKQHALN
H1047R PIK3CA enzyme, sequence (P27986 whole entry partner): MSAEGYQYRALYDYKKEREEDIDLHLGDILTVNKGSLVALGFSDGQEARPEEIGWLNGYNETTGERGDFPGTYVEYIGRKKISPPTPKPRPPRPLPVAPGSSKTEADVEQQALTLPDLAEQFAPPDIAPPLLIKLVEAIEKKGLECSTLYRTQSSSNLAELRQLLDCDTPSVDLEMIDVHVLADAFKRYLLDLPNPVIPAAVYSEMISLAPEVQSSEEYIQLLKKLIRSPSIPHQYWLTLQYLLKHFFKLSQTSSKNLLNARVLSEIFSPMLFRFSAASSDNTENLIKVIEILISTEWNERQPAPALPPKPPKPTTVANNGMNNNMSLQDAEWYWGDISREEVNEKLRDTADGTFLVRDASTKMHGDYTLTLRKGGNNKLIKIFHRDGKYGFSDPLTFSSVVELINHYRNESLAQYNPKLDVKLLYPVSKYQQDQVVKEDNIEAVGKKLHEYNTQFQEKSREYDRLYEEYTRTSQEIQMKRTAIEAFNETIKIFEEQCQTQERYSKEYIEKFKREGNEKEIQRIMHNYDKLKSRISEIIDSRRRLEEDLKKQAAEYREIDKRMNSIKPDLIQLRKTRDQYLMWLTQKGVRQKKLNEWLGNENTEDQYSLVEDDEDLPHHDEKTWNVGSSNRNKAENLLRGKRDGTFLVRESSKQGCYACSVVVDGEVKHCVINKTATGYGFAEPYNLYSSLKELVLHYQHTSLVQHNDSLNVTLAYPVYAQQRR

SMILES | IC50
Cc1ccccc1C1NC(=O)c2cc(CF)cc(NC(=O)c3cc(F)cc(C(F)(F)F)c3)c21 (stereo not drawn) [Compound I-536] | ≤ 0.1 µM
O=C(Nc1cccc2c1C(N1CCCCC1)NC2=O)c1cc(F)cc(C(F)(F)F)c1 (stereo not drawn) [Compound I-537] | 10 to 100 µM
O=C(Nc1cc(N2CCCC(F)(F)C2)nc2c1C(c1cc(F)ccc1Cl)NC2=O)c1cc(F)cc(C(F)(F)F)c1 (stereo not drawn) [Compound I-538] | ≤ 0.1 µM
O=C(Nc1cc(N2CCC(F)(F)CC2)nc2c1C(c1cc(F)ccc1Cl)NC2=O)c1cc(F)cc(C(F)(F)F)c1 (stereo not drawn) [Compound I-539] | ≤ 0.1 µM
O=C1NC(c2cc(F)ccc2Cl)c2c(NC(=O)N3CCC(F)C3)cc(Br)cc21 (stereo not drawn) [Compound I-542] | 10 to 100 µM
O=C1NC(c2cc(F)ccc2Cl)c2c(NC(=O)N3CCC(C(F)(F)F)C3)cc(Br)cc21 (stereo not drawn) [Compound I-543] | 1 to 10 µM
O=C1NC(c2cc(F)ccc2Cl)c2c(NC(=O)N3CCCC(F)(F)C3)cc(Br)cc21 (stereo not drawn) [Compound I-544] | 1 to 10 µM
O=C(Nc1cc(Cl)nc2c1C(c1cc(F)ccc1Cl)NC2=O)c1cc(F)cc(C(F)(F)F)c1 (stereo not drawn) [Compound I-545] | ≤ 0.1 µM
Cc1ncc(-c2cc(NC(=O)c3cc(F)cc(C(F)(F)F)c3)c3c(n2)C(=O)NC3c2cc(F)ccc2Cl)s1 (stereo not drawn) [Compound I-546] | ≤ 0.1 µM
Cn1cc(-c2cc(NC(=O)c3cc(F)cc(C(F)(F)F)c3)c3c(n2)C(=O)NC3c2cc(F)ccc2Cl)ccc1=O (stereo not drawn) [Compound I-547] | ≤ 0.1 µM
O=C(Nc1cc(-c2ccncc2F)nc2c1C(c1cc(F)ccc1Cl)NC2=O)c1cc(F)cc(C(F)(F)F)c1 (stereo not drawn) [Compound I-548] | ≤ 0.1 µM
N#Cc1cnccc1-c1cc(NC(=O)c2cc(F)cc(C(F)(F)F)c2)c2c(n1)C(=O)NC2c1cc(F)ccc1Cl (stereo not drawn) [Compound I-549] | ≤ 0.1 µM
O=C(Nc1ccnc2c1C(c1ccccc1Cl)NC2=O)c1cc(F)c(F)c(Cl)c1 (stereo not drawn) [Compound I-550] | 0.5 to 1 µM
CCC(=O)Nc1cc(NC(=O)c2cc(F)cc(C(F)(F)F)c2)c2c(c1)C(=O)NC2c1cc(F)ccc1Cl (stereo not drawn) [Compound I-552] | ≤ 0.1 µM
O=C(Nc1cncc2c1C(c1cc(F)ccc1Cl)NC2=O)c1cc(F)cc(C(F)(F)F)c1 (stereo not drawn) [Compound I-553] | ≤ 0.1 µM
CCC(N)(CC)c1cc(NC(=O)c2cc(F)cc(C(F)(F)F)c2)c2c(c1)C(=O)NC2c1cc(F)ccc1Cl (stereo not drawn) [Compound I-554] | ≤ 0.1 µM
NC(=O)c1cc(NC(=O)c2cc(F)cc(C(F)(F)F)c2)c2c(c1)C(=O)NC2c1cc(F)ccc1Cl (stereo not drawn) [Compound I-555] | ≤ 0.1 µM
CCOc1cc(C(=O)Nc2cc(Br)cc3c2C(c2cc(F)ccc2Cl)NC3=O)ccc1F (stereo not drawn) [Compound I-556] | 1 to 10 µM
O=C1NC(c2cc(F)ccc2Cl)c2c(NC(=O)C3(c4cccc(F)c4)CC3)cc(Br)cc21 (stereo not drawn) [Compound I-557] | 1 to 10 µM
O=C(Nc1cc(Br)cc2c1C(c1cc(F)ccc1Cl)NC2=O)c1ccc(F)c(OC(F)F)c1 (stereo not drawn) [Compound I-558] | 1 to 10 µM
COc1cc(C(=O)Nc2cc(Br)cc3c2C(c2cc(F)ccc2Cl)NC3=O)ccc1F (stereo not drawn) [Compound I-559] | 1 to 10 µM
O=C(Cc1cc(F)ccc1C(F)(F)F)Nc1cc(Br)cc2c1C(c1cc(F)ccc1Cl)NC2=O (stereo not drawn) [Compound I-560] | 1 to 10 µM
O=C(Nc1cc(Br)cc2c1C(c1cc(F)ccc1Cl)NC2=O)c1cnn(-c2ccccc2)c1 (stereo not drawn) [Compound I-561] | 10 to 100 µM
O=C1NC(c2cc(F)ccc2Cl)c2c(NC(=O)c3cccn4ccnc34)cc(Br)cc21 (stereo not drawn) [Compound I-562] | 10 to 100 µM

SMILES | IC50
O=C(Cc1c(F)ccc(F)c1F)Nc1cc(Br)cc2c1C(c1cc(F)ccc1Cl)NC2=O (stereo not drawn) [Compound I-563] | 10 to 100 µM
O=C(Nc1cc(Br)cc2c1C(c1cc(F)ccc1Cl)NC2=O)c1cc(F)c(F)c(Cl)c1 (stereo not drawn) [Compound I-564] | ≤ 0.1 µM
O=C(Nc1cc(Br)cc2c1C(c1cc(F)ccc1Cl)NC2=O)c1ccc(F)c(Cl)c1 (stereo not drawn) [Compound I-565] | 0.5 to 1 µM
O=C(Nc1cc(Br)cc2c1C(c1cc(F)ccc1Cl)NC2=O)c1ccc(F)c(C(F)(F)F)c1 (stereo not drawn) [Compound I-566] | 0.5 to 1 µM
O=C(Nc1cc(Br)cc2c1C(c1cc(F)ccc1Cl)NC2=O)c1cccc(C(F)(F)F)n1 (stereo not drawn) [Compound I-567] | 1 to 10 µM
O=C(Cc1ccccc1C(F)(F)F)Nc1cc(Br)cc2c1C(c1cc(F)ccc1Cl)NC2=O (stereo not drawn) [Compound I-568] | 1 to 10 µM
O=C(Nc1cc(Br)cc2c1C(c1cc(F)ccc1Cl)NC2=O)c1cccc(C2CC2)c1 (stereo not drawn) [Compound I-569] | 1 to 10 µM
O=C(Nc1cc(Br)cc2c1C(c1cc(F)ccc1Cl)NC2=O)c1cccc(C(F)F)c1 (stereo not drawn) [Compound I-570] | 1 to 10 µM
O=C(Nc1cc(Br)cc2c1C(c1cc(F)ccc1Cl)NC2=O)c1ccccc1OC(F)(F)F (stereo not drawn) [Compound I-571] | 1 to 10 µM
O=C(Nc1cc(Br)cc2c1C(c1cc(F)ccc1Cl)NC2=O)c1ccc(C(F)F)cc1 (stereo not drawn) [Compound I-572] | 1 to 10 µM
O=C(Nc1cc(Br)cc2c1C(c1cc(F)ccc1Cl)NC2=O)c1cccc(Cl)c1 (stereo not drawn) [Compound I-573] | 0.5 to 1 µM
O=C1NC(c2cc(F)ccc2Cl)c2c(NC(=O)N3CCCOCC3)cc(Br)cc21 (stereo not drawn) [Compound I-574] | 10 to 100 µM
O=C(Nc1cc(N2CC(O)C2)nc2c1C(c1cc(F)ccc1Cl)NC2=O)c1cc(F)cc(C(F)(F)F)c1 (stereo not drawn) [Compound I-575] | ≤ 0.1 µM
O=C1NC(c2cc(F)ccc2Cl)c2c(NC(=O)N3CCOCC3)cc(Br)cc21 (stereo not drawn) [Compound I-576] | 10 to 100 µM
O=C1NC(c2cc(F)ccc2Cl)c2c(NC(=O)N3CCCCCC3)cc(Br)cc21 (stereo not drawn) [Compound I-577] | 10 to 100 µM
NC(=O)Cc1cc(NC(=O)c2cc(F)cc(C(F)(F)F)c2)c2c(c1)C(=O)NC2c1cc(F)ccc1Cl (stereo not drawn) [Compound I-578] | ≤ 0.1 µM
O=C(Nc1cc(CCO)cc2c1C(c1cc(F)ccc1Cl)NC2=O)c1cc(F)cc(C(F)(F)F)c1 (stereo not drawn) [Compound I-579] | ≤ 0.1 µM
O=C(Nc1cccc2c1C(c1cc(F)ccc1Cl)NC2=O)c1cc(F)c(F)c(C(F)(F)F)c1 (stereo not drawn) [Compound I-580] | ≤ 0.1 µM
CC(=O)c1cc(F)cc(C(=O)Nc2cccc3c2C(c2cc(F)ccc2Cl)NC3=O)c1 (stereo not drawn) [Compound I-581] | 1 to 10 µM
Cn1cc(Br)c(C(=O)Nc2cccc3c2C(c2cc(F)ccc2Cl)NC3=O)n1 (stereo not drawn) [Compound I-582] | 10 to 100 µM
Cn1ncc(Br)c1C(=O)Nc1cccc2c1C(c1cc(F)ccc1Cl)NC2=O (stereo not drawn) [Compound I-583] | 10 to 100 µM
Cc1ncc(-c2cc(NC(=O)c3cc(F)cc(C(F)(F)F)c3)c3c(n2)C(=O)NC3c2cc(F)ccc2Cl)cn1 (stereo not drawn) [Compound I-584] | ≤ 0.1 µM
O=C(Nc1cc(-c2cncc(F)c2)nc2c1C(c1cc(F)ccc1Cl)NC2=O)c1cc(F)cc(C(F)(F)F)c1 (stereo not drawn) [Compound I-585] | ≤ 0.1 µM
CCn1cc(-c2cc(NC(=O)c3cc(F)cc(C(F)(F)F)c3)c3c(n2)C(=O)NC3c2cc(F)ccc2Cl)ccc1=O (stereo not drawn) [Compound I-586] | ≤ 0.1 µM

SMILES | IC50
Cn1cc(-c2cc(NC(=O)c3cc(F)cc(C(F)(F)F)c3)c3c(n2)C(=O)N[C@@H]3c2cc(F)ccc2Cl)ccc1=O [Compound I-587] | 1 to 10 µM
Cn1cc(-c2cc(NC(=O)c3cc(F)cc(C(F)(F)F)c3)c3c(n2)C(=O)N[C@H]3c2cc(F)ccc2Cl)ccc1=O [Compound I-588] | ≤ 0.1 µM
O=C(Nc1cc(C2COC2)cc2c1[C@@H](c1cc(F)ccc1Cl)NC2=O)c1cc(F)cc(C(F)(F)F)c1 [Compound I-589] | ≤ 0.1 µM
O=C(Nc1cc(C2COC2)cc2c1[C@H](c1cc(F)ccc1Cl)NC2=O)c1cc(F)cc(C(F)(F)F)c1 [Compound I-590] | ≤ 0.1 µM
CC(C)(O)C(=O)Nc1cc(NC(=O)c2cc(F)cc(C(F)(F)F)c2)c2c(c1)C(=O)NC2c1cc(F)ccc1Cl (stereo not drawn) [Compound I-591] | ≤ 0.1 µM
O=C(Nc1cc(NC(=O)C2(O)CC2)cc2c1C(c1cc(F)ccc1Cl)NC2=O)c1cc(F)cc(C(F)(F)F)c1 (stereo not drawn) [Compound I-592] | ≤ 0.1 µM
CC(C)n1cc(-c2cc(NC(=O)c3cc(F)cc(C(F)(F)F)c3)c3c(n2)C(=O)NC3c2cc(F)ccc2Cl)ccc1=O (stereo not drawn) [Compound I-593] | ≤ 0.1 µM
O=C1NC(c2cc(F)ccc2Cl)c2c(NC(=O)c3cc(F)cc4cn[nH]c34)cccc21 (stereo not drawn) [Compound I-594] | 0.5 to 1 µM
O=C1NC(c2cc(F)ccc2Cl)c2c(NC(=O)c3cc(F)cc4cn[nH]c34)cccc21 (stereo not drawn) [Compound I-595] | 1 to 10 µM
O=C(Nc1cccc2c1C(c1cc(F)ccc1Cl)NC2=O)c1cc(Cl)cc2c1OCC2 (stereo not drawn) [Compound I-596] | 1 to 10 µM
O=C(CC1CCc2ccccc21)Nc1cc(Br)cc2c1C(c1cc(F)ccc1Cl)NC2=O (stereo not drawn) [Compound I-599] | 10 to 100 µM
O=C(CCc1ccccc1C(F)(F)F)Nc1cc(Br)cc2c1C(c1cc(F)ccc1Cl)NC2=O (stereo not drawn) [Compound I-600] | 1 to 10 µM
O=C(Nc1cc(Br)cc2c1C(c1cc(F)ccc1Cl)NC2=O)c1cccc2c1OCCC2 (stereo not drawn) [Compound I-601] | 10 to 100 µM
O=C1NC(c2cc(F)ccc2Cl)c2c(NC(=O)c3cccc4cccnc34)cc(Br)cc21 (stereo not drawn) [Compound I-602] | 1 to 10 µM
Cc1nc2ccccn2c1CC(=O)Nc1cc(Br)cc2c1C(c1cc(F)ccc1Cl)NC2=O (stereo not drawn) [Compound I-603] | 10 to 100 µM
O=C1NC(c2cc(F)ccc2Cl)c2c(NC(=O)C3(c4ccccc4)CCCC3)cc(Br)cc21 (stereo not drawn) [Compound I-604] | 1 to 10 µM
O=C1NC(c2cc(F)ccc2Cl)c2c(NC(=O)C3CCOc4ccccc43)cc(Br)cc21 (stereo not drawn) [Compound I-605] | 10 to 100 µM
O=C1NC(c2cc(F)ccc2Cl)c2c(NC(=O)c3ccnc4ccc(Cl)cc34)cc(Br)cc21 (stereo not drawn) [Compound I-606] | 10 to 100 µM
O=C(Nc1cc(Br)cc2c1C(c1cc(F)ccc1Cl)NC2=O)c1ccnc(C(F)(F)F)c1F (stereo not drawn) [Compound I-607] | 10 to 100 µM
CCc1cc(F)cc(C(=O)Nc2cc(Br)cc3c2C(c2ccccc2C)NC3=O)c1 (stereo not drawn) [Compound I-608] | 0.5 to 1 µM
CC1(Nc2cc(NC(=O)c3cc(F)cc(C(F)(F)F)c3)c3c(c2)C(=O)NC3c2cc(F)ccc2Cl)COC1 (stereo not drawn) [Compound I-610] | ≤ 0.1 µM
COCc1cc(NC(=O)c2cc(F)cc(C(F)(F)F)c2)c2c(c1)C(=O)NC2c1cc(F)ccc1Cl (stereo not drawn) [Compound I-611] | ≤ 0.1 µM
O=C1NC(c2cc(F)ccc2C(F)F)c2c(NC(=O)c3nsc4ccccc34)cc(Br)cc21 (stereo not drawn) [Compound I-612] | ≤ 0.1 µM
O=C(Nc1cc(NC2COC2)cc2c1C(c1cc(F)ccc1Cl)NC2=O)c1cc(F)cc(C(F)(F)F)c1 (stereo not drawn) [Compound I-613] | ≤ 0.1 µM

Reference: US12581252B2, “Substituted pyrrolo[3,4-b]pyridines as PI3K-α inhibitors” (Relay Therapeutics, Inc., priority 2020, dated 2026)
